Patent US4560549A, “Method of relieving pain and inflammatory conditions employing substituted salicylamides” (Lever Brothers Company, priority 1983, dated 1985)

Experiments:
[1] = tested on: inflammation of mice ears caused by calcium ionophore (A-23187); assay: Anti-inflammatory activity on inflammation of mice ears caused by calcium ionophore A-23187 (Examples 4-7); assay type: in vivo, male outbred hairless mice; details: for Reduction in Edema (%) / Reduction in Erythema (%): Table I, 1.5 micromole topically to ear 30 min after 4.0 nmole A-23187, assessed at 4 hrs; for anti-inflammatory activity (in words): at the concentration used (1.5 micromole), data of Table 1; for reduction of inflammation (in words): topical, 30 minutes after application of ionophore A-23187
Description: In a group of 5 male outbred hairless mice, inflammation is induced on their ears by the topical application thereto of 4.0 nmole in acetone solution (total volume 10 microliter) of the known divalent calcium ionophore (antibiotic A-23187), which is derived from streptomyces chartreusis and is a member of a known class of compounds having ionophoric activity. See, e.g. Pressman, B. C., "Biological Applications of Ionophores", Ann. Rev. Biochem., 45, 501, 1976. […] See Marks, F., Furstenberger, G., and Kownatzki, E., "Prostaglandin E-mediated Mitogenic Stimulation of Mouse Epidermis in vivo by divalent cation ionophore A-23187 and by tumor promoter 12-O-tetradecanoyl phorbol-13-acetate, Cancer Res., 41, 696, 1981.
In each animal only one ear is treated, the other untreated ear serving as a control.
In Examples 4, 5 and 6 the compounds AN-10, APCF3-8 and AMCF3-8, respectively, are topically applied to the treated ears of different groups of five male outbred hairless mice 30 minutes following the topical application thereto of the ionophore A-23187. Specifically, 1.5 micromole of the amido compound in acetone solution (total volume 10 microliters) is applied topically to treated male outbred hairless mice ears 30 min. after topical application thereto of a calcium ionophore (A-23187, 4.0 nmole total volume to 10 microliter) in acetone. As already noted, in each case, each animal serves as its own control in that only one ear is subjected to said test regime while the other ear is left untouched. Erythema and edema are assessed 4 hrs. after application of the ionophore. In Control Example 7, 3,4',5-tribromosalicylanilide (TBS) is applied in the same manner.

mice backs (skin) = details: topical application to mice backs; cited from earlier work
[2] = tested on: ears of hairless outbred mice inflamed with A-23187; assay: Reduction in edema of A-23187 inflamed mouse ears by ear weight (Examples 8-14, Studies A and B); assay type: in vivo, young, male, adult hairless outbred mice (Skh:hr-1 strain); details: for Reduction in Edema (%): sacrificed at four hours; for anti-inflammatory activity (in words): under the test conditions, data of Table 2
Description: (§1) Acute inflammation is induced by the application of 4 nano mole of the antibiotic A-23187 to the ears of young, male, adult hairless outbred mice (Skh:hr-1 strain). Thereafter, one of the compounds AN-10, AMCF3-8, ACBXE-9, acryloyl AN-10, S-4-F and SAN-6 is applied to the affected ears and the degree of reduction in edema (inflammation) noted.
The method used in the subject Examples differs from the method used in the preceding Examples (4 through 7) in two respects.
(§2) Secondly, in the expression of the data, the objective parameter of ear weights is used as the sole data source (for the reduction of edema) as erythematous responses are not recorded. Ear weights are determined by sacrificing the animals four hours after initial application of the antibiotic A-23187 or other control material by the use of CO2 gas. Thereafter, the ears are excised by cutting along the characteristic ridge readily discernible along the inner aspect of the ears. Wet and dry ear weights are used to determine the extent of the edema or inflammation present.
In Study A, 28 test animals are randomized into four treatment groups of seven each and subjected to the following ear treatment regimen:
Each animal is dosed with a treatment consisting of a 10 microliter quantity of the assigned test material solution (or pure acetone in the case of the animals of Group D) applied to the outer aspect of both ears, i.e., 10 microliter of test material per ear. The concentrations of the respective materials in acetone solution are such that a 10 microliter dose of a solution of the antibiotic A-23187 contains 4 nano mole of such antibiotic. The corresponding quantity in the case of the AN-10 in acetone solution is 1.5 micromole. The animals of Groups A and B are initially treated with the acetone solution of A-23187. In the case of the animals of Group B alone, 10 microliter of the acetone solution of AN-10 is applied to the affected ears 1/2 hour after the application of the above-mentioned quantity of a solution in acetone of the antibiotic A-23187. The animals of Group C receive a 10 microliter dose per ear of the AN-10 in acetone solution alone. The animals of Group D receive a dose of 10 microliter per ear of pure acetone. All the test subjects are sacrificed four hours after the application of A-23187 to the animals of Groups A and B or the other test materials in the case of the animals of Groups C and D. The results are summarized in Table 2 noted below.
(§3) A second group of studies (Study B) is conducted on two consecutive days with two sets of mice (totalling […]) received from the same shipment.
On Day 2, using the second set of 40 mice, sub-divided into 8 groups of 5 each, the six compounds in question are applied as acetone solutions in the manner described under Study A to mice ears inflamed with A-23187 again, as described in Study A above. As with the studies conducted on Day 1, the remaining two groups of 5 animals each serve as controls and their ears are dosed with A-23187 and acetone respectively.
(§4) The amount of each salicylamide compound applied is kept constant, for Days 1 and 2, at 1.5 micromole per 10 microliter of test solution. Sacrifice begins four hours after application A-23187, on both days, and the results are recorded. Table 2 summarizes the results of the regimen of testing involved with each one of the 30 animals in question on Day 2 with the remaining 10 animals serving as controls as already noted.

untreated ears of mice = assay: Inflammatory potential of the compounds on untreated mouse ears (Study B, Day 1); assay type: in vivo, young, male, adult hairless outbred mice (Skh:hr-1 strain); details: 1.5 micromole per 10 microliter on untreated ears
Description: as §1, §2, §3
The first batch of 40 animals is divided into […] of 5 each. […] The remaining two groups of 5 animals each serve as controls and their ears are dosed with A-23187 and acetone respectively.
as §4

[3] = tested on: Osborne-Mendel white rats; details: single dose oral route, female Osborne-Mendel white rats; cited from earlier work
rats = details: comparable toxicity for aspirin; cited from earlier work
[4] = Study B, Day 2, 1.5 micromole per 10 microliter, A-23187 inflamed ears

Which results are given for `CNc1ccc2oc(C[C@H]3O[C@@]4(CC[C@H]3C)O[C@H]([C@H](C)C(=O)c3ccc[nH]3)[C@H](C)C[C@H]4C)nc2c1C(=O)O` [A-23187, reference compound]?
acute inflammation on treated mice ears (in words) ([1]; topical application of A-23187, time and dose dependent): Acute inflammation develops on treated mice ears within 4 hours; skin irritation (in words) (mice backs (skin)): potent ability to cause skin irritation with white blood cell infiltration, erythema (skin reddening), edema, epidermal hypertrophy and subsequent epidermal hyperplasia

Which “Reduction in Edema (%)” value [2, 4] does the source give for `CCCCCCCCC(=O)c1ccc(O)c(C(=O)Nc2cccc(C(=O)OCC)c2)c1` [ACBXE-9] here?
Its value is 76%.

And the “anti-inflammatory activity (in words)” value [2]?
The value was “significant anti-inflammatory activity”.

And the “noticeable inflammation caused by the compound alone” value (“noticeable inflammation caused” below) (untreated ears of mice)?
Its value is “none of the six compounds being tested cause any noticeable inflammation”.

With `CCCCCCCC(=O)c1ccc(O)c(C(=O)Nc2cccc(C(F)(F)F)c2)c1` [AMCF3-8] as the compound, how does the “Reduction in Edema (%)” value [2, 4] read?
The value was 81%.

What about the “anti-inflammatory activity (in words)” value [2] of the same compound?
The value was “significant anti-inflammatory activity”.

What about the “more edema reduction activity of the meta isomer than the para isomer” value ([1]; AMCF3-8 versus APCF3-8) of the same compound?
The value was “about 30%”.

What about the “more erythema reduction activity of the meta isomer than the para isomer” value ([1]; AMCF3-8 versus APCF3-8) of the same compound?
The value was “about 20%”.

And the “Reduction in Edema (%)” value [1]?
The value was 80%.

And the “Reduction in Erythema (%)” value [1]?
Its value is 76%.

What about the “anti-inflammatory activity (in words)” value [1] of the same compound?
Its value is “effective anti-inflammatories”.

What about the “noticeable inflammation caused” value (untreated ears of mice) of the same compound?
Its value is “none of the six compounds being tested cause any noticeable inflammation”.

With `CCCCCCCCCC(=O)c1ccc(O)c(C(=O)Nc2ccc([N+](=O)[O-])cc2)c1` [AN-10] as the compound, how does the “Reduction in Edema (%)” value ([2]; Study A, 1.5 micromole per ear 1/2 hour after 4 nano mole A-23187) read?
Its value is 55%.

And the “Reduction in Edema (%)” value [2, 4]?
Its value is 81%.

What about the “anti-inflammatory activity (in words)” value [2] of the same compound?
The value was “significant anti-inflammatory activity”.

What about the “Reduction in Edema (%)” value [1] of the same compound?
Its value is 59%.

What about the “Reduction in Erythema (%)” value [1] of the same compound?
Its value is 59%.

And the “anti-inflammatory activity (in words)” value [1]?
The value was “effective anti-inflammatories”.

And the LD50 [3]?
Its LD50 is “greater than 2000 mg./kg”.

And the “noticeable inflammation caused” value (untreated ears of mice)?
The value was “none of the six compounds being tested cause any noticeable inflammation”.

For `CCCCCCCC(=O)c1ccc(O)c(C(=O)Nc2ccc(C(F)(F)F)cc2)c1` [APCF3-8], which “Reduction in Edema (%)” value [1] is on record?
Its value is 48%.

And the “Reduction in Erythema (%)” value [1]?
Its value is 57%.

What about the “anti-inflammatory activity (in words)” value [1] of the same compound?
Its value is “effective anti-inflammatories”.

Which “Reduction in Edema (%)” value [2, 4] does the source give for `CCCCc1ccc(O)c(C(=O)Nc2cccc(C(F)(F)F)c2)c1` [S-4-F] here?
The value was 70%.

And the “anti-inflammatory activity (in words)” value [2]?
Its value is “significant anti-inflammatory activity”.

What about the “noticeable inflammation caused” value (untreated ears of mice) of the same compound?
Its value is “none of the six compounds being tested cause any noticeable inflammation”.

What does the source list for `CCCCCCc1ccc(O)c(C(=O)Nc2ccc([N+](=O)[O-])cc2)c1` [SAN-6]?
Reduction in Edema (%) [2, 4]: 59%; anti-inflammatory activity (in words) [2]: significant anti-inflammatory activity; noticeable inflammation caused by the compound alone (untreated ears of mice): none of the six compounds being tested cause any noticeable inflammation

What does the source list for `O=C(Nc1ccc(Br)cc1)c1cc(Br)cc(Br)c1O` [TBS, 3,4',5-tribromosalicylanilide, reference compound]?
Reduction in Edema (%) [1]: 12%; Reduction in Erythema (%) [1]: 35%; anti-inflammatory activity (in words) [1]: essentially inactive

What does the source list for `C=CC(=O)Oc1ccc(C(=O)CCCCCCCCC)cc1C(=O)Nc1ccc([N+](=O)[O-])cc1` [acryloyl AN-10]?
Reduction in Edema (%) [2, 4]: 82%; anti-inflammatory activity (in words) [2]: significant anti-inflammatory activity; noticeable inflammation caused by the compound alone (untreated ears of mice): none of the six compounds being tested cause any noticeable inflammation

Which LD50 (rats) does the source give for `CC(=O)Oc1ccccc1C(=O)O` [aspirin, acetylsalicylic acid] here?
The LD50 was “about 1.75 g/kg. body weight”.

For `C[C@]12CCC(=O)C=C1CC[C@@H]1[C@@H]2[C@@H](O)C[C@@]2(C)[C@H]1CC[C@]2(O)C(=O)CO` [hydrocortisone, reference compound], which “reduction of inflammation (in words)” value [1] is on record?
The value was “reduction of inflammation”.

Which “reduction of inflammation (in words)” value [1] does the source give for `COc1ccc2c(c1)c(CC(=O)O)c(C)n2C(=O)c1ccc(Cl)cc1` [indomethacin, reference compound] here?
The value was “reduction of inflammation”.
